Measured values reported in patent publication US12378500B2, “Liquid laundry product comprising a fragrance composition comprising isopulegol” (TAKASAGO INTERNATIONAL CORPORATION, priority 2016, dated 2025).

Tested on: human brain
Test: CNV (Contingent Negative Variation) method, inhalation of fragrance compositions by a panel of subjects
Assay type: in vivo
Details: 2 wt % isopulegol added to fragrance A; fragrance A as control; inhaled; panel of 7 subjects; FIG. 3
Procedure: The stimulating effect of isopulegol was determined by the CNV (Contingent Negative Variation) method as described below and briefly summarized in FIGS. 1 and 2.
The CNV was measured using a digital electroencephalograph BIOSEMi (registered trademark). Electrodes for the CNV measurement were placed at Fp1, Fp2, F4, Fz, F3, T7, C3, Cz, C4, T8, P4, Pz, P3, O1, Oz, O2 according to the international 10-20 system, electrodes for ear lobes were set to indifferent electrodes, and brain waves were recorded at a time constant of 5.0 seconds referenced to the linked earlobes. In order to check artifacts of eye movement to a brain wave, vertical and horizontal movements of the left eye were also recorded.
Confirmation of a stimulative effect of a sample was conducted by steps of delivering a warning stimulus S1 (tone of 60-65 dB), followed 2300 ms later by a second stimulus S2 (light source). Test fragrance compositions were inhaled from jars disposed a few (e.g. 15-20) centimetres from the subjects' nose during each period of acquisition. […] The base line was determined from an average voltage of a brain wave in a time period of 500 ms before S1. The evaluation of the CNV waveform was conducted according to the method of Tori et al. (op. cit.), in which CNV was evaluated by the area (unit: ms×[…]) of an early component between 400 ms to 1,000 ms after the warning sound stimulus (S1).

In the case of `C=C(C)[C@@H]1CC[C@@H](C)C[C@H]1O` (racemic) [isopulegol], the “CNV activity (area under the curve) of fragrance A + isopulegol versus fragrance A alone” value is reported as “enhances the CNV activity of fragrance A”.
